Reference: patent US20250114374A1, “BCL-2 INHIBITORS” (Newave Pharmaceutical Inc., priority 2021, published 2025)

system: RS4; 11 with G101V mutation; test: In vitro anti-proliferation assay (ATPlite luminescence) in BCL-2-dependent ALL cell line RS4;11 with G101V mutation; type: cell-based; details: Homo sapiens, RS4-11, 72 h; read-out: RS411-G101V IC50
Procedure: Cell antiproliferation was assayed by PerkinElmer ATPlite™ Luminescence Assay System. Briefly, the various test cancer cell lines were plated at a density of about 1×10^4 cells per well in Costar 96-well plates, and were incubated with different concentrations of compounds for about 72 hours in medium supplemented with 10% FBS. One lyophilized substrate solution vial was then reconstituted by adding 5 mL of substrate buffer solution, and was agitated gently until the solution was homogeneous. About 50 μL of mammalian cell lysis solution was added to 100 μL of cell suspension per well of a microplate, and the plate was shaken for about five minutes in an orbital shaker at ˜700 rpm. This procedure was used to lyse the cells and to stabilize the ATP. Next, 50 μL substrate solution was added to the wells and microplate was shaken for five minutes in an orbital shaker at ˜700 rpm. Finally, the luminescence was measured by a PerkinElmer TopCount® Microplate Scintillation Counter. Such assays, carried out with a range of doses of test compounds, allowed the determination of the cellular anti-antiproliferative IC50 of the compounds of the present invention.
The following table lists the IC50 values of another study for certain compounds of the invention.

IC50 [nM] | Structure (SMILES)
8 | COc1cc(CN2CCN(C3CC4(CCN(c5ccc(C(=O)NS(=O)(=O)c6cc7c(c([N+](=O)[O-])c6)N[C@@H](C6CCOCC6)CO7)c(N6c7cc8cc[nH]c8nc7O[C@H]7COCC[C@@H]76)c5)CC4)C3)[C@H](c3ccccc3C)C2)cnc1N1CCOCC1 [Example 142, 4-(2-((R)-4-((5-methoxy-6-morpholinopyridin-3-yl)methyl)-2-(o-tolyl)piperazin-1-yl)-7-azaspiro[3.5]nonan-7-yl)-N—(((S)-5-nitro-3-(tetrahydro-2H-pyran-4-yl)-3,4-dihydro-2H-benzo[b][1,4]oxazin-7-yl)sulfonyl)-2-((5aS,9aR)-6,7,9,9a-tetrahydro-1H-pyrano[3,4-b]pyrrolo[3′,2′:5,6]pyrido[3,2-e][1,4]oxazin-5(5aH)-yl)benzamide]
45.7 | CC[C@@H](c1ccc(F)c(F)c1)N1CCN(C2CC3(CCN(c4ccc(C(=O)NS(=O)(=O)c5cc6c(c([N+](=O)[O-])c5)N[C@H](C5CCOCC5)CO6)c(N5c6cc7cc[nH]c7nc6O[C@H]6COCC[C@@H]65)c4)CC3)C2)[C@H](c2ccccc2OC(C)C)C1 [Example 247, 4-(2-((R)-4-((S)-1-(3,4-difluorophenyl)propyl)-2-(2-isopropoxyphenyl)piperazin-1-yl)-7-azaspiro[3.5]nonan-7-yl)-N-(((R)-5-nitro-3-(tetrahydro-2H-pyran-4-yl)-3,4-dihydro-2H-benzo[b][1,4]oxazin-7-yl)sulfonyl)-2-((5aS,9aR)-6,7,9,9a-tetrahydro-1H-pyrano[3,4-b]pyrrolo[3′,2′:5,6]pyrido[3,2-e][1,4]oxazin-5(5aH)-yl)benzamide]

same assay, conditions: cellular anti-proliferative IC50, about 72 hours, medium with 10% FBS, ATPlite; read-out: RS411-G101V IC50

Structure (SMILES) | IC50 [nM]
CC(C)Oc1ccccc1[C@H]1CN(Cc2ccc(N3CCOCC3)cn2)CCN1C1CC2(CCN(c3ccc(C(=O)NS(=O)(=O)c4ccc(NCC5CCC(C)(O)CC5)c([N+](=O)[O-])c4)c(N4c5cc6cc[nH]c6nc5O[C@H]5COCC[C@@H]54)c3)CC2)C1 (stereo partly drawn) [Example 128, N-((4-((((1r,4r)-4-hydroxy-4-methylcyclohexyl)methyl)amino)-3-nitrophenyl)sulfonyl)-4-(2-((S)-2-(2-isopropoxyphenyl)-4-((5-morpholinopyridin-2-yl)methyl)piperazin-1-yl)-7-azaspiro[3.5]nonan-7-yl)-2-((5aS,9aR)-6,7,9,9a-tetrahydro-1H-pyrano[3,4-b]pyrrolo[3′,2′:5,6]pyrido[3,2-e][1,4]oxazin-5(5aH)-yl)benzamide] | 22.2
CC(C)Oc1ccccc1[C@@H]1CN(Cc2ccc(F)c(F)c2)CCN1C1CC2(CCN(c3ncc(C(=O)NS(=O)(=O)c4cc5c(c([N+](=O)[O-])c4)N[C@H](C4CCOCC4)CO5)c(N4c5cc6cc[nH]c6nc5O[C@H]5COCC[C@@H]54)c3F)CC2)C1 [Example 228, 6-{2-[(2R)-4-[(3,4-difluorophenyl)methyl]-2-(2-isopropoxyphenyl)piperazin-1-yl]-7-azaspiro[3.5]nonan-7-yl}-4-[(3R,8S)-2,5-dioxa-9,15,17-triazatetracyclo[8.7.0.0^{3,8}.0^{12,16}]heptadeca-1(10),11,13,16-tetraen-9-yl]-5-fluoro-N-[(3R)-5-nitro-3-(oxan-4-yl)-3,4-dihydro-2H-1,4-benzoxazin-7-ylsulfonyl]pyridine-3-carboxamide] | 202
CC(C)Oc1ccccc1[C@@H]1CN(Cc2ccc(F)c(F)c2)CCN1C1CC2(CCN(c3ccc(C(=O)NS(=O)(=O)c4cc5c(c([N+](=O)[O-])c4)N[C@H](C4CCOCC4)CO5)c(N4c5cc6cc[nH]c6nc5O[C@@H]5COCC[C@H]54)c3)CC2)C1 [Example 239, 4-{2-[(2R)-4-[(3,4-difluorophenyl)methyl]-2-(2-isopropoxyphenyl)piperazin-1-yl]-7-azaspiro[3.5]nonan-7-yl}-2-[(3S,8R)-2,5-dioxa-9,15,17-triazatetracyclo[8.7.0.0^{3,8}.0^{12,16}]heptadeca-1(10),11,13,16-tetraen-9-yl]-N-[(3R)-5-nitro-3-(oxan-4-yl)-3,4-dihydro-2H-1,4-benzoxazin-7-ylsulfonyl]benzamide] | 7.1
CC(C)Oc1ccccc1[C@@H]1CN([C@H]2CCOc3cc(F)c(F)cc32)CCN1C1CC2(CCN(c3ccc(C(=O)NS(=O)(=O)c4cc5c(c([N+](=O)[O-])c4)N[C@H](C4CCOCC4)CO5)c(N4c5cc6cc[nH]c6nc5O[C@H]5COCC[C@@H]54)c3)CC2)C1 [Example 210, 4-{2-[(2R)-4-[(4S)-6,7-difluoro-3,4-dihydro-2H-1-benzopyran-4-yl]-2-(2-isopropoxyphenyl)piperazin-1-yl]-7-azaspiro[3.5]nonan-7-yl}-2-[(3R,8S)-2,5-dioxa-9,15,17-triazatetracyclo[8.7.0.0^{3,8}.0^{12,16}]heptadeca-1(10),11,13,16-tetraen-9-yl]-N-[(3R)-5-nitro-3-(oxan-4-yl)-3,4-dihydro-2H-1,4-benzoxazin-7-ylsulfonyl]benzamide] | 37.8
Cc1ccccc1[C@@H]1CN(C2CCC(C)(O)CC2)CCN1C1CC2(CCN(c3ccc(C(=O)NS(=O)(=O)c4cc5c(c([N+](=O)[O-])c4)N[C@H](C4CCOCC4)CO5)c(N4c5cc6cc[nH]c6nc5O[C@H]5COCC[C@@H]54)c3)CC2)C1 (stereo partly drawn) [Example 200, 4-(2-((R)-4-((1s,4S)-4-hydroxy-4-methylcyclohexyl)-2-(o-tolyl)piperazin-1-yl)-7-azaspiro[3.5]nonan-7-yl)-N-(((R)-5-nitro-3-(tetrahydro-2H-pyran-4-yl)-3,4-dihydro-2H-benzo[b][1,4]oxazin-7-yl)sulfonyl)-2-((5aS,9aR)-6,7,9,9a-tetrahydro-1H-pyrano[3,4-b]pyrrolo[3′,2′:5,6]pyrido[3,2-e][1,4]oxazin-5(5aH)-yl)benzamide] | 82.6
CC(C)Oc1ccccc1[C@H]1CN(C2CCN(C3CCOCC3)CC2)CCN1C1CC2(CCN(c3ccc(C(=O)NS(=O)(=O)c4ccc(NC[C@H]5CC[C@](C)(O)CC5)c([N+](=O)[O-])c4)c(N4c5cc6cc[nH]c6nc5O[C@H]5COCC[C@@H]54)c3)CC2)C1 [Example 162, N-((4-((((1r,4r)-4-hydroxy-4-methylcyclohexyl)methyl)amino)-3-nitrophenyl)sulfonyl)-4-(2-((S)-2-(2-isopropoxyphenyl)-4-(1-(tetrahydro-2H-pyran-4-yl)piperidin-4-yl)piperazin-1-yl)-7-azaspiro[3.5]nonan-7-yl)-2-((5aS,9aR)-6,7,9,9a-tetrahydro-1H-pyrano[3,4-b]pyrrolo[3′,2′:5,6]pyrido[3,2-e][1,4]oxazin-5(5aH)-yl)benzamide] | 49.9
COc1cc(CN2CCN(C3CC4(CCN(c5ccc(C(=O)NS(=O)(=O)c6cc7c(c([N+](=O)[O-])c6)N[C@H](C6CCOCC6)CO7)c(N6c7cc8cc[nH]c8nc7O[C@H]7COCC[C@@H]76)c5)CC4)C3)[C@H](c3ccccc3OC(C)C)C2)cnc1N1CCOC[C@@H]1C [Example 169, 2-[(3R,8S)-2,5-dioxa-9,15,17-triazatetracyclo[8.7.0.0^{3,8}.0^{12,16}]heptadeca-1(10),11,13,16-tetraen-9-yl]-4-{2-[(2R)-2-(2-isopropoxyphenyl)-4-({5-methoxy-6-[(3S)-3-methylmorpholin-4-yl]pyridin-3-yl}methyl)piperazin-1-yl]-7-azaspiro[3.5]nonan-7-yl}-N-[(3R)-5-nitro-3-(oxan-4-yl)-3,4-dihydro-2H-1,4-benzoxazin-7-ylsulfonyl]benzamide] | 3.82
CC(C)Oc1ccccc1[C@H]1CN(Cc2ccc(F)c(F)c2)CCN1C1CC2(CCN(c3ccc(C(=O)NS(=O)(=O)c4ccc(NCC5CCOCC5)c([N+](=O)[O-])c4)c(N4c5cc6cc[nH]c6nc5O[C@H]5COCC[C@@H]54)c3)CC2)C1 [Example 185, 4-{2-[(2S)-4-[(3,4-difluorophenyl)methyl]-2-(2-isopropoxyphenyl)piperazin-1-yl]-7-azaspiro[3.5]nonan-7-yl}-2-[(3R,8S)-2,5-dioxa-9,15,17-triazatetracyclo[8.7.0.0^{3,8}.0^{12,16}]heptadeca-1(10),11,13,16-tetraen-9-yl]-N-{3-nitro-4-[(oxan-4-ylmethyl)amino]benzenesulfonyl}benzamide] | 112
CC(C)Oc1ccccc1[C@@H]1CN([C@H](C)c2ccc(F)c(F)c2)CCN1C1CC2(CCN(c3ccc(C(=O)NS(=O)(=O)c4cc5c(c([N+](=O)[O-])c4)N[C@H](C4CCOCC4)CO5)c(N4c5cc6cc[nH]c6nc5O[C@H]5COCC[C@@H]54)c3)CC2)C1 [Example 242, 4-{2-[(2R)-4-[(1R)-1-(3,4-difluorophenyl)ethyl]-2-(2-isopropoxyphenyl)piperazin-1-yl]-7-azaspiro[3.5]nonan-7-yl}-2-[(3R,8S)-2,5-dioxa-9,15,17-triazatetracyclo[8.7.0.0^{3,8}.0^{12,16}]heptadeca-1(10),11,13,16-tetraen-9-yl]-N-[(3R)-5-nitro-3-(oxan-4-yl)-3,4-dihydro-2H-1,4-benzoxazin-7-ylsulfonyl]benzamide] | 97.8
CC(C)Oc1ccccc1[C@H]1CN(Cc2cnc(N3CCOCC3)c(OC(C)C)c2)CCN1C1CC2(CCN(c3ccc(C(=O)NS(=O)(=O)c4ccc(NCC5CCC(C)(O)CC5)c([N+](=O)[O-])c4)c(N4c5cc6cc[nH]c6nc5O[C@H]5COCC[C@@H]54)c3)CC2)C1 (stereo partly drawn) [Example 137, 2-[(3R,8S)-2,5-dioxa-9,15,17-triazatetracyclo[8.7.0.0^{3,8}.0^{12,16}]heptadeca-1(10),11,13,16-tetraen-9-yl]-4-{2-[(2S)-4-{[5-isopropoxy-6-(morpholin-4-yl)pyridin-3-yl]methyl}-2-(2-isopropoxyphenyl)piperazin-1-yl]-7-azaspiro[3.5]nonan-7-yl}-N-[3-nitro-4-({[(1r,4r)-4-hydroxy-4-methylcyclohexyl]methyl}amino)benzenesulfonyl]benzamide] | 41.5
